Source: ChEMBL document CHEMBL1201862, “PubChem BioAssay data set” (2004)
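Interpolation was linear, between the two tested concentrations surrounding the appropriate level; five concentrations were tested over 48 hours in 96-well plates. GI50: concentration for 50% inhibition of growth.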 The source made the active and inactive calls. Rule as the data show it: active = GI50 up to about 1.1 µM and inactive = higher.

Legend:
Experiment in all cases: NCI tumour cell line growth inhibition, 48 h
[1] = system: 786-0
[2] = system: KM12
[3] = system: A549
[4] = system: NCI-H226
[5] = system: XF498
[6] = system: SK-MEL-5
[7] = system: CAKI-1
[8] = system: CCRF-CEM
[9] = system: SR
[10] = system: TK-10
[11] = system: OVCAR-5
[12] = system: Malme-3M
[13] = system: SF-539
[14] = system: RXF 631
[15] = system: SNB-75
[16] = system: SNB-19
[17] = system: DLD-1
[18] = system: NCI-H522
[19] = system: ACHN
[20] = system: HOP-18
[21] = system: M19-MEL
[22] = system: EKVX
[23] = system: SK-MEL-28
[24] = system: HCT-116
[25] = system: DMS-114
[26] = system: SNB-78
[27] = system: OVCAR-3
[28] = system: RPMI-8226
[29] = system: SK-MEL-2
[30] = system: LXFL 529
[31] = system: HOP-62
[32] = system: OVCAR-4
[33] = system: KM-20L2
[34] = system: DMS-273
[35] = system: SF-295
[36] = system: SN12C
[37] = system: SF-268
[38] = system: SW-620
[39] = system: SK-OV-3
[40] = system: A498
[41] = system: HOP-92
[42] = system: U-251
[43] = system: UACC-62
[44] = system: M14
[45] = system: COLO 205
[46] = system: IGROV-1
[47] = system: NCI-H23
[48] = system: UO-31
[49] = system: MOLT-4
[50] = system: HCC 2998
[51] = system: LOX IMVI
[52] = system: HT-29
[53] = system: OVCAR-8
[54] = system: NCI-H460
[55] = system: UACC-257
[56] = system: K562
[57] = system: HL-60
[58] = system: HCT-15
[59] = system: RXF 393

SMILES: C#CCOCn1cnc2ncnc(Cl)c21
- GI50 [1]: > 100 µM (inactive)
- GI50 [2]: > 100 µM (inactive)
- GI50 [3]: > 100 µM (inactive)
- GI50 [4]: > 100 µM (inactive)
- GI50 [5]: > 100 µM (inactive)
- GI50 [6]: > 100 µM (inactive)
- GI50 [7]: > 100 µM (inactive)
- GI50 [8]: > 100 µM (inactive)
- GI50 [9]: > 100 µM (inactive)
- GI50 [10]: > 100 µM (inactive)
- GI50 [11]: > 100 µM (inactive)
- GI50 [12]: > 100 µM (inactive)
- GI50 [13]: > 100 µM (inactive)
- GI50 [14]: > 100 µM (inactive)
- GI50 [15]: > 100 µM (inactive)
- GI50 [16]: > 100 µM (inactive)
- GI50 [17]: > 100 µM (inactive)
- GI50 [18]: > 100 µM (inactive)
- GI50 [19]: > 100 µM (inactive)
- GI50 [20]: > 100 µM (inactive)
- GI50 [21]: > 100 µM (inactive)
- GI50 [22]: > 100 µM (inactive)
- GI50 [23]: > 100 µM (inactive)
- GI50 [24]: > 100 µM (inactive)
- GI50 [25]: > 100 µM (inactive)
- GI50 [26]: > 100 µM (inactive)
- GI50 [27]: > 100 µM (inactive)
- GI50 [28]: > 100 µM (inactive)
- GI50 [29]: > 100 µM (inactive)
- GI50 [30]: > 100 µM (inactive)
- GI50 [31]: > 100 µM (inactive)
- GI50 [32]: > 100 µM (inactive)
- GI50 [33]: > 100 µM (inactive)
- GI50 [34]: > 100 µM (inactive)
- GI50 [35]: > 100 µM (inactive)
- GI50 [36]: > 100 µM (inactive)
- GI50 [37]: > 100 µM (inactive)
- GI50 [38]: > 100 µM (inactive)
- GI50 [39]: > 100 µM (inactive)
- GI50 [40]: > 100 µM (inactive)
- GI50 [41]: > 100 µM (inactive)
- GI50 [42]: > 100 µM (inactive)
- GI50 [43]: > 100 µM (inactive)
- GI50 [44]: > 100 µM (inactive)
- GI50 [45]: > 100 µM (inactive)
- GI50 [46]: > 100 µM (inactive)
- GI50 [47]: > 100 µM (inactive)
- GI50 [48]: > 100 µM (inactive)
- GI50 [49]: > 100 µM (inactive)
- GI50 [50]: > 100 µM (inactive)
- GI50 [51]: > 100 µM (inactive)
- GI50 [52]: > 100 µM (inactive)
- GI50 [53]: > 100 µM (inactive)
- GI50 [54]: > 100 µM (inactive)
- GI50 [55]: > 100 µM (inactive)
- GI50 [56]: > 100 µM (inactive)

SMILES: CCN(CC)c1ccc2c(c1)Oc1ccc(N(CC)CC)cc1C21Oc2ccccc2-c2c1c1ccccc1n2CC (stereo unspecified)
- GI50 [1]: 4.05 µM (inactive)
- GI50 [3]: 3.18 µM (inactive)
- GI50 [4]: 7.74 µM (inactive)
- GI50 [5]: 1.06 µM (active)
- GI50 [6]: 1.56 µM (inactive)
- GI50 [57]: 1.25 µM (inactive)
- GI50 [7]: 5.15 µM (inactive)
- GI50 [8]: 1.44 µM (inactive)
- GI50 [9]: 4.48 µM (inactive)
- GI50 [12]: 1.73 µM (inactive)
- GI50 [14]: 6.1 µM (inactive)
- GI50 [15]: > 100 µM (inactive)
- GI50 [16]: 6.87 µM (inactive)
- GI50 [17]: 3.48 µM (inactive)
- GI50 [18]: 1.3 µM (inactive)
- GI50 [19]: 1.32 µM (inactive)
- GI50 [20]: 0.614 µM (active)
- GI50 [22]: 6.47 µM (inactive)
- GI50 [23]: 2 µM (inactive)
- GI50 [24]: 1.05 µM (active)
- GI50 [25]: 0.506 µM (active)
- GI50 [26]: 7.36 µM (inactive)
- GI50 [27]: 1.25 µM (inactive)
- GI50 [28]: 0.592 µM (active)
- GI50 [30]: 3.36 µM (inactive)
- GI50 [58]: 3.82 µM
- GI50 [32]: 3.58 µM (inactive)
- GI50 [33]: 0.875 µM (active)
- GI50 [34]: 3.4 µM (inactive)
- GI50 [35]: 2.7 µM (inactive)
- GI50 [36]: 3.68 µM (inactive)
- GI50 [37]: 2.38 µM (inactive)
- GI50 [38]: 3.58 µM (inactive)
- GI50 [39]: 4.07 µM (inactive)
- GI50 [40]: 8.34 µM (inactive)
- GI50 [41]: 0.302 µM (active)
- GI50 [42]: 1.68 µM (inactive)
- GI50 [43]: 1.85 µM (inactive)
- GI50 [44]: 3.07 µM (inactive)
- GI50 [45]: 2.45 µM (inactive)
- GI50 [47]: 2.07 µM (inactive)
- GI50 [48]: 1.43 µM (inactive)
- GI50 [49]: 2.88 µM (inactive)
- GI50 [50]: 3.07 µM (inactive)
- GI50 [51]: 3.24 µM (inactive)
- GI50 [52]: 1.22 µM (inactive)
- GI50 [59]: 1.81 µM (inactive)
- GI50 [53]: 6.18 µM (inactive)
- GI50 [55]: 2.89 µM (inactive)
- GI50 [56]: 0.679 µM (active)
